Consider 5 compounds from patent publication US20220306623A1, “PYRIDYL OR PYRIMIDYL MTOR KINASE INHIBITORS” (GLAXOSMITHKLINE INTELLECTUAL PROPERTY DEVELOPMENT LIMITED, priority 2019, published 2022).

The subject of experiment [1] is type I collagen deposition in primary lung fibroblasts derived from human tissue. The experiment is described as follows: High throughput type I collagen deposition (scar-in-a-jar) high content screening assay. It is filed as cell-based. Conditions: Primary lung fibroblast, 72 h, human pulmonary fibroblasts, 384-well, TGF-β 1 ng/ml 72 h, total collagen area, read-out: mean pIC50, high throughput type I collagen deposition (scar-in-a-jar) (converted). The procedure:
Highthroughput, cellular type I collagen deposition was measured by adapting a published method; scar-in-a-jar (Chen et al., 2009) to primary lung fibroblasts derived from human tissue and combining with high content analysis to permit fluorescent quantification of collagen deposited in the extracellular matrix (ECM). The human biological samples were sourced ethically and their research use was in accordance with the terms of the informed consents.
Test compounds were dissolved in 100% DMSO to give 10 mM (stocks) and further diluted to give half log dilutions to generate an 11 point concentration response curve. 1 ul was transferred to 384-well plates (Greiner Group, Kremsmunster, Austria, Catalogue No Greine 781280r).
Human pulmonary fibroblasts were maintained in DMEM media (Gibco, Catalogue No 21969) supplemented with 4 mM L-glutamine (Gibco Catalogue No 25030-024) and 10% heat inactivated FBS (Gibco, Catalogue No 10099-141) at 37° C. in 10% CO2. Cells were harvested and resuspended at 4×10^6 cells/ml in a T175 cell culture flask (BD Falcom, Catalogue No: 353112) containing 50 mL of culture media. After 4 days 37° C. in 10% CO2, cells were harvested and seeded at 4000 cells per well ([…]) into 384-well plates (BD Falcon, Catalogue No 353962Greiner) in assay media (0.4% heat inactivated FBS, 4 mM L-glutamine). Plates were sealed with breathable seals (Sigma, Catalogue No. BEM-1). Assay plates were incubated for 72 h at 37° C. in 10% CO2.
Assay media was supplemented with 112.5 mg/ml Ficoll 70 (Sigma, Catalogue No F2878), 75 mg/ml Ficoll 400 (Sigma, Catalogue No F4375) and 50 µg/ml ascorbic acid (Sigma, Catalogue No A8960). 30 μL assay media were added to 1 l compound ([…] compound concentration in 1% DMSO). Diluted compounds (10 μL) were transferred to plates containing cells and incubated for 3 h at 37° C. in 10% CO2. Transforming growth factor (TGF)-β (R&D systems, Catalogue No 100-B/CF) was reconstituted to give 10 µg/mL (stock) and further diluted in assay media containing Ficoll and ascorbic acid (1 in 3333). TGF-β was added to cell plates (1 ng/ml final) and cells incubated for 72 h at 37° C. in 10% CO2.
Media was aspirated from cells and 30 µL/well 100% ice-cold methanol added and incubated at RT for 5 min to fix cells. Methanol was aspirated and cells washed with PBS (3×). To block and permeabilise, cells were incubated with PBS containing 1% BSA and 0.1% Triton X 100 for 20 min, followed by PBS wash (3×). Cells were incubated with mouse anti human type I collagen monoclonal antibody (Sigma, Catalogue No C2456) diluted 1:1000 in PBS for 24 h at 4° C. Cells were washed with PBS containing 0.1% Tween-20 (3×) and incubated with secondary alexa fluor 488 goat-anti-mouse antibody (Invitrogen, Catalogue No A11001, 1 in 500 in PBS) and Hoechst 33342 (Sigma, Catalogue No H21492), 1 in 1000 in PBS) for 1 h at RT, prior to washing with PBS containing 0.1% Tween (×4).
Type I collagen immunoreactivity was detected using the INCell 2000 Analyzer (GE Healthcare, INcell 2000) set to excitation and emission wavelengths for DAPI and FITC with laser focus and exposure adjusted to appropriate levels. Images were imported and analysed using Columbus software (Perkin Elmer) and computational algorithms to quantify “total collagen area” and “cell count”.
Data analysis was performed by determining 0/inhibition values for test compounds relative to the minimum (media only) and maximum responses (TGF-βstimulation) with non-linear regression analysis to determine IC50 values for test compounds.

The target of another experiment is T1, mTOR (Homo sapiens, UniProt P42345).
T1 construct: capturing of endogenously expressed target proteins from cell extracts by a bead-immobilized capturing ligand; endogenous in cells; host or cells: HuT-78 cells (ECACC 88041901), cell lysate
The experiment is described as follows: mTOR kinobeads competition-binding assay. Conditions: HuT-78 cell lysate, bead-immobilized capturing ligand, 2 h at 4° C., mean of multiple experiments; read-out: mean pIC50, mTOR kinobeads assay (converted). As to the method: The affinity of test compounds for mTOR was determined in the mTOR kinobeads assay. This is a competition-binding assay based on the capturing of endogenously expressed target proteins from cell extracts by a bead-immobilized capturing ligand in the presence of the test compound.
HuT-78 cells (European Collection of Authenticated Cell Cultures, 88041901) were cultured according to vendor's instructions. Frozen cell pellets were homogenized in 3× pellet volumes lysis buffer (50 mM Tris-HCl, 0.4% (v/v) Igepal-CA630, 5% glycerol, 150 mM NaCl, 1.5 mM MgCl2, 25 mM NaF, 1 mM sodium vanadate, 1 mM DTT, pH 7.5, supplemented with EDTA-free protease inhibitor tablet (Roche)). The sample was dispersed using a Dounce homogenizer, kept rotating for 30 min at 4° C., and centrifuged for 10 min at 20000 gat 4° C. The supernatant was centrifuged again for 1 h at 145 000 g. The protein concentration was determined by Bradford assay (BioRad), aliquots were snap frozen in liquid nitrogen and stored at −80° C.
The capturing matrices were generated by derivatizing N-hydroxysuccinimide (NHS) activated Sepharose 4 beads (GE Healthcare) with the functionalized ligands Compound A and Compound C at a ligand density of 5 mM. Remaining NHS-groups were blocked with ethanolamine.
For the mTOR kinobeads assay the matrices were combined in a 1:1 ratio and equilibrated in DP buffer (50 mM Tris-HCl (pH 7.5), 0.4% (v/v) Igepal-CA630, 5% (v/v) glycerol, 150 mM NaCl, 1.5 mM MgCl2, 25 mM NaF, 1 mM Na3VO4, 1 mM dithiothreitol). All steps of the mTOR kinobeads assay were performed at 4° C. or on ice. The cell lysate was diluted with DP buffer to a final concentration of 5 mg/ml and a final detergent concentration of 0.4% (v/v) Igepal-CA630. For the assay 250 μg cell lysate and 2.5 μl capturing matrix per well (final assay volume: 75 μl) were incubated in the presence of test compounds in a 384-well filter plate (MultiScreenHTS HV Filter Plate, 0.45 μm, MZHVNOW50, Merck Millipore). Each plate contained 16 positive (100 μM Compound B) and 16 negative (2% v/v DMSO) control wells. Compounds were tested in a concentration-response applying 1:3 or 1:4 dilution steps for in total 11 data points. DMSO concentration was 2% (v/v). After 2 h incubation on an overhead shaker (Roto-Shake Genie, Scientific Industries Inc.) at 4° C. the non-bound fraction was removed by washing the beads with DP buffer. Proteins retained on the beads were eluted in SDS sample buffer (200 mM Tris (pH 7.4), 250 mM Trizma Base, 4% (w/v) SDS, 20% (v/v) glycerol, 0.01% (w/v) bromophenol blue, 50 mM dithiothreitol) into a collection plate (384 well polypropylene microplate, V-shape, Greiner, 781 280). Eluates were spotted on nitrocellulose membranes (400 nl per spot) using an automated pin-tool liquid transfer (Biomek FX, Beckman). After drying, the membranes were rehydrated in 20% (v/v) ethanol and blocked by incubation with Odyssey blocking buffer (LICOR, 927-40000) for 1 h at room temperature. Blocked membranes were incubated overnight at 25° C. with Odyssey blocking buffer supplemented with a specific anti-mTOR antibody (Cell Signaling, 2972; 1:500) and 0.4% TWEEN-20. Then the membranes were washed in PBST buffer and incubated for 60 minutes at room temperature with the detection antibody (IRDye™ labelled antibody from LI-COR) diluted in Odyssey blocking buffer (LICOR 927-40000) containing 0.2% TWEEN-20. Then the membranes were washed with PBST and finally rinsed twice with PBS buffer to remove residual Tween-20. The membranes were then scanned with the Odyssey® Infrared Imaging System (LI-COR Biosciences). Fluorescence signals were recorded and analyzed according to the instructions of the manufacturer. Concentration response curves were computed with the software Activity Base. All data were normalized to the mean of 16 high (negative control) and 16 low (positive control) control wells on each plate. […]

In experiment [2] the test system is phosphorylated Akt at serine 473 (pAKTs473) in primary human lung fibroblasts. Kind of experiment: High throughput phosphorylated Akt (Ser473) in vitro immunoassay (MSD). Type of experiment: cell-based. Conditions: Fibroblast, primary human lung fibroblasts (Lonza), 384-well, compound 1 h, PDGF-BB 10 ng/ml 10 min, read-out: mean pIC50, pAKTser473 high throughput immunoassay (converted). An excerpt:
Immunoassay to measure effect of test compounds on phosphorylated Akt at serine 473 (pAKTs473) in primary human lung fibroblasts (Lonza Group Ltd, Basel, Switzerland, Catalogue No. CC-2512) using the MesoScale Discovery (MSD) platform to quantify levels of total Akt and pAKTser473.
Human lung fibroblasts were routinely maintained in fibroblast basal medium supplemented with 2% foetal bovine serum (FBS), 0.1% human fibroblast growth factor (FGF)-B, 0.1% insulin, 0.1% GA-100 (Lonza Group Ltd, Basel, Switzerland, Catalogue No. CC-3132) at 37° C. in 5% CO2 according to the manufacturer's protocol.
For the assay, cells were harvested using Trypsin/EDTA, (Lonza Group Ltd, Basel, Switzerland, Catalogue No. CC-5012), at working concentration of 0.025%, resuspended to give 3×10^5 cells/ml and 50 ul/well seeded into 384-well plates (Greiner Group, Kremsmunster, Austria, Catalogue No. 781091) in media containing 0.4% FBS and incubated o/n at 37° C. in 5% CO2.
Test compounds were dissolved in 100% DMSO to give 10 mM stock solutions and serially diluted to generate an 11-point concentration response curve. Compound were further diluted by […] into 384-well V-bottom polypropylene plates (Greiner Group, Kremsmunster, Austria, Catalogue No. 781280) with media containing 0.4% FBS to give 50 µM top compound concentration in 0.5% DMSO.
Compounds were transferred to 384-well plates contacting cells (0.1% DMSO final) and incubated for 1 h at 37° C. in 5% CO2, prior to stimulation with platelet-derived growth factor (PDGF)-BB (R&D Systems, Catalogue No. 220-BB) at 10 ng/ml (final) for 10 min at RT. Cell assay plates were incubated on ice and treated with lysis buffer (Cell Signalling Technology, Catalogue No. 9806) containing protease and phosphatase inhibitors (Thermo Scientific, Catalogue No. 78444) followed by shaking for 30 min at 4° C.
MSD plates (MSD, MA6000 384-well GAR plate, Catalogue No. L21RA-2) were blocked with blocking buffer containing TBS (MSD, Cat. No. R61TX-1) with 0.5% bovine serum albumin (BSA) (Sigma Aldrich, Cat. No. A7906), 0.1% tween-20 (Sigma Aldrich, Catalogue No. P2287) and coated with rabbit-anti-human pAkt (s473) ab (Cell Signalling Technology, Catalogue No. CST #4060) at RT with shaking, followed by washing (×3) with 1×TBS wash reagent containing 0.1% Tween-20. Cell lysates (30 ul) were added and MSD plates centrifuged at 1000 rpm at 4° C. o/n.
Plates were washed with 1×TBS wash buffer (×3), prior to addition of mouse-anti-human-total Akt ab (1 mg/ml) (Upstate (Milipore), Catalogue No. 05-591) in blocking buffer and shaken at RT for 1 h. After washing with 1×TBS wash buffer (×3), plates were incubated with goat-anti-mouse SULFO-TAG detection ab (MSD, Catalogue No. R32AC-1) (1:500 in blocking buffer) for 1 h at RT. Plates were washed with 1×TBS (×3) and read buffer (2×) (MSD, Catalogue No. R92TC-1) added before detecting electrochemiluminescence (MSD Sector Imager 6000).
Data analysis was performed by determining % inhibition values for test compounds relative to the minimum (+PDGF-BB stimulation) and maximum responses (no PDGF-BB stimulation) with non-linear regression analysis to determine IC50 values for test compounds.

Each structure is given as a SMILES string. A value given as a limit tells only on which side of the number the result lay.

`CC[C@H]1COCC(=O)N1c1cc(CS(C)(=O)=O)nc(-c2ccc3[nH]c(CO)cc3n2)n1` [Example 5, (5S)-5-ethyl-4-{2-[2-(hydroxymethyl)-1H-pyrrolo[3,2-b]pyridin-5-yl]-6-(methanesulfonylmethyl)pyrimidin-4-yl}morpholin-3-one]: the IC50 is 20 to 3160 nM in experiment [1] and at most 0.2 nM at mTOR.
Regarding `CC[C@H]1COCCN1c1cc(CS(C)(=O)=O)nc(-c2ccc3[nH]c(C)cc3n2)n1` [Example 12, (3S)-3-ethyl-4-[6-(methanesulfonylmethyl)-2-{2-methyl-1H-pyrrolo[3,2-b]pyridin-5-yl}pyrimidin-4-yl]morpholine], the IC50 was 20 to 3160 nM in experiment [1] and at most 0.316 nM at mTOR.
`CC[C@H]1COCCN1c1cc(C2(S(C)(=O)=O)CCOCC2)cc(-c2ccc3[nH]c(C)cc3n2)n1` [Example 21, (S)-3-ethyl-4-(6-(2-methyl-1H-pyrrolo[3,2-b]pyridin-5-yl)-4-(4-(methylsulfonyl)tetra-hydro-2H-pyran-4-yl)pyridin-2-yl)morpholine]: the IC50 in experiment [1] is 20 to 3160 nM; in experiment [2], 2.51 to 25.1 nM.
For the compound `CC[C@H]1COCCN1c1cc(CS(=O)(=O)NC)nc(-c2ccc3[nH]c(C)cc3n2)n1` [Example 11, 1-{6-[(3S)-3-ethylmorpholin-4-yl]-2-{2-methyl-1H-pyrrolo[3,2-b]pyridin-5-yl}pyrimidin-4-yl}-N-methylmethanesulfonamide], the IC50 was 20 nM in experiment [1] and at most 0.2 nM at mTOR.
On the same counts, the results for `CC[C@H]1COCC(=O)N1c1cc(CS(=O)(=O)N(C)C)cc(-c2ccc3[nH]c(CO)cc3n2)n1` [Example 29, (S)-1-(2-(3-ethyl-5-oxomorpholino)-6-(2-(hydroxymethyl)-1H-pyrrolo[3,2-b]pyridin-5-yl)pyridin-4-yl)-N,Ndimethylmethanesulfonamide] are 20 to 3160 nM and at most 1.26 nM.
